According to patent publication US7473790B2 (Pfizer Inc., priority 2003, dated 2009):

What follows are compounds tested against T1, HCV polymerase (Hepatitis C virus genotype 1b, UniProt P26663) (assay: HCV polymerase primer/template-directed transcription assay (32P-GTP incorporation, filter binding)). Conditions: @ 20 uM compound; given where IC50 was impractical to calculate; read-out: percent inhibition.
T1 construct: 2.5 pmoles (0.15 μg) HCV polymerase protein in a final volume of 75 μL
Format: biochemical
Outline: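 Recombinant genotype 1b polymerase (30 nM) extended biotin-dG12 primer on poly(rC)300 template with 1 μM GTP plus α-32P-GTP, pH 7.2, 10 mM MgCl2, 30 min at 30° C, 1% DMSO final. Products captured on DE filters and counted. IC50 fitted from triplicate cpm, with a tight-binding correction applied below 200 nM.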

T1 sequence (P26663 2420-3010): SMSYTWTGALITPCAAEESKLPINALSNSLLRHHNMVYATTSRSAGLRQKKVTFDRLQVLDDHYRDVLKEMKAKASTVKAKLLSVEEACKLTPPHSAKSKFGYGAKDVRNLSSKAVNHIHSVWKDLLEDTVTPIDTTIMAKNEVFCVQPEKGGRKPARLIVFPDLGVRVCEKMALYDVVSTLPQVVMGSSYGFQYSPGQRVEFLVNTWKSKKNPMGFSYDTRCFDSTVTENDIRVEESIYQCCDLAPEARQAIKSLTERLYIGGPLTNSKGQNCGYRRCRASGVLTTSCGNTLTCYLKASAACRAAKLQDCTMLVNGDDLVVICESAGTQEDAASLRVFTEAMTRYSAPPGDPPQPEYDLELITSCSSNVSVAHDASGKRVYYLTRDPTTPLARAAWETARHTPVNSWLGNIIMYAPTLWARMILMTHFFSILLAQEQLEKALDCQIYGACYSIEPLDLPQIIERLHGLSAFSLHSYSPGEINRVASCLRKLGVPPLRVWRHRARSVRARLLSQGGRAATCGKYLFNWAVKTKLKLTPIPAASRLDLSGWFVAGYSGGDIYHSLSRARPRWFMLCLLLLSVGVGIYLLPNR

Compound	inhibition at 20 µM [%]
CC(C)Oc1ccc(CCC2(C3CCCC3)CC(O)=C(Cc3nc4ccccc4n3C)C(=O)O2)cc1Cl (centres unmarked) [B(27), 6-[2-(3-Chloro-4-isopropoxy-phenyl)-ethyl]-6-cyclopentyl-4-hydroxy-3-(1-methyl-1H-benzoimidazol-2-ylmethyl)-5,6-dihydro-pyran-2-one]	47

Same assay, conditions: recombinant HCV polymerase; 30 minutes at 30° C.; concentration giving 50% inhibition of polymerase-directed transcription; read-out: IC50

Compound	IC50 [nM]
Cn1c(CC2=C(O)CC(CCc3ccc(OCC4CC4)c(Cl)c3)(C3CCCC3)OC2=O)nc2ccccc21 (centres unmarked) [B(26), 6-[2-(3-Chloro-4-cyclopropylmethoxy-phenyl)-ethyl]-6-cyclopentyl-4-hydroxy-3-(1-methyl-1H-benzoimidazol-2-ylmethyl)-5,6-dihydro-pyran-2-one]	2300
Cc1cc(C)n2nc(CC3=C(O)CC(CCc4ccc(OCC5CC5)c(Cl)c4)(C4CCCC4)OC3=O)nc2n1 (centres unmarked) [B(28), 6-[2-(3-Chloro-4-cyclopropylmethoxy-phenyl)-ethyl]-6-cyclopentyl-3-(5,7-dimethyl-[1,2,4]triazolo[1,5-a]pyrimidin-2-ylmethyl)-4-hydroxy-5,6-dihydro-pyran-2-one]	11
COc1ccc(CCC2(C3CCCC3)CC(O)=C(Cc3nn(C)cc3Cl)C(=O)O2)cc1Cl (centres unmarked) [B(29), 6-[2-(3-Chloro-4-methoxy-phenyl)-ethyl]-3-(4-chloro-1-methyl-1H-pyrazol-3-ylmethyl)-6-cyclopentyl-4-hydroxy-5,6-dihydro-pyran-2-one]	220
COc1ccc(CCC2(C3CCCC3)CC(O)=C(Cc3ncc[nH]3)C(=O)O2)cc1Cl (centres unmarked) [B(30), 6-[2-(3-Chloro-4-methoxy-phenyl)-ethyl]-6-cyclopentyl-4-hydroxy-3-(1H-imidazol-2-ylmethyl)-5,6-dihydro-pyran-2-one]	2000
Cc1cc(C)n2nc(CC3=C(O)CC(CCc4ccc(OC(C)C)c(Cl)c4)(C4CCCC4)OC3=O)nc2n1 (centres unmarked) [B(31), 6-[2-(3-Chloro-4-isopropoxy-phenyl)-ethyl]-6-cyclopentyl-3-(5,7-dimethyl-[1,2,4]triazolo[1,5-a]pyrimidin-2-ylmethyl)-4-hydroxy-5,6-dihydro-pyran-2-one]	3
COc1cc(OC)c(CCC2(C3CCCC3)CC(O)=C(Cc3nn(C)cc3Cl)C(=O)O2)cc1Cl (centres unmarked) [B(32), 6-[2-(5-Chloro-2,4-dimethoxy-phenyl)-ethyl]-3-(4-chloro-1-methyl-1H-pyrazol-3-ylmethyl)-6-cyclopentyl-4-hydroxy-5,6-dihydro-pyran-2-one]	70
Cc1cc(C)n2nc(CC3=C(O)CC(CCc4ccc(OCC5CC5)c(F)c4)(C4CCCC4)OC3=O)nc2n1 (centres unmarked) [B(33), 6-Cyclopentyl-6-[2-(4-cyclopropylmethoxy-3-fluoro-phenyl)-ethyl]-3-(5,7-dimethyl-[1,2,4]triazolo[1,5-a]pyrimidin-2-ylmethyl)-4-hydroxy-5,6-dihydro-pyran-2-one]	136
Cc1cc(C)n2nc(CC3=C(O)CC(CCc4ccc(OC(C)C)cc4)(C4CCCC4)OC3=O)nc2n1 (centres unmarked) [B(34)]	30
COc1cc(OC)c(CCC2(C3CCCC3)CC(O)=C(Cc3c[nH]c(C)n3)C(=O)O2)cc1Cl (centres unmarked) [B(35), 6-[2-(5-Chloro-2,4-dimethoxy-phenyl)-ethyl]-6-cyclopentyl-4-hydroxy-3-(2-methyl-1H-imidazol-4-ylmethyl)-5,6-dihydro-pyran-2-one]	70
Cc1cc(C)n2nc(CC3=C(O)CC(CCc4ccc5c(c4)OCCO5)(C4CCCC4)OC3=O)nc2n1 (centres unmarked) [B(36), 6-Cyclopentyl-6-[2-(2,3-dihydro-benzo[1,4]dioxin-6-yl)-ethyl]-3-(5,7-dimethyl-[1,2,4]triazolo[1,5-a]pyrimidin-2-ylmethyl)-4-hydroxy-5,6-dihydro-pyran-2-one]	42
CCOc1c(Cl)cc(CCC2(C3CCCC3)CC(O)=C(Cc3nc4nc(C)cc(C)n4n3)C(=O)O2)cc1Cl (centres unmarked) [B(37), 6-Cyclopentyl-6-[2-(3,5-dichloro-4-ethoxy-phenyl)-ethyl]-3-(5,7-dimethyl-[1,2,4]triazolo[1,5-a]pyrimidin-2-ylmethyl)-4-hydroxy-5,6-dihydro-pyran-2-one]	8
Cc1cc(C)n2nc(CC3=C(O)CC(CCc4ccc(Cl)c(Cl)c4)(C4CCCC4)OC3=O)nc2n1 (centres unmarked) [B(38), 6-Cyclopentyl-6-[2-(3,4-dichloro-phenyl)-ethyl]-3-(5,7-dimethyl-[1,2,4]triazolo[1,5-a]pyrimidin-2-ylmethyl)-4-hydroxy-5,6-dihydro-pyran-2-one]	21
Cc1cc(C)n2nc(CC3=C(O)CC(CCCCC4CCCCC4)(C4CCCC4)OC3=O)nc2n1 (centres unmarked) [B(39), 6-(4-Cyclohexyl-butyl)-6-cyclopentyl-3-(5,7-dimethyl-[1,2,4]triazolo[1,5-a]pyrimidin-2-ylmethyl)-4-hydroxy-5,6-dihydro-pyran-2-one]	29
Cc1cc(C)n2nc(CC3=C(O)CC(CCc4ccc5c(c4)OC(F)(F)C(F)(F)O5)(C4CCCC4)OC3=O)nc2n1 (centres unmarked) [B(40), 6-Cyclopentyl-3-(5,7-dimethyl-[1,2,4]triazolo[1,5-a]pyrimidin-2-ylmethyl)-4-hydroxy-6-[2-(2,2,3,3-tetrafluoro-2,3-dihydro-benzo[1,4]dioxin-6-yl)-ethyl]-5,6-dihydro-pyran-2-one]	14
CCCOc1ccc(CCC2(C3CCCC3)CC(O)=C(Cc3nc4nc(C)cc(C)n4n3)C(=O)O2)cc1 (centres unmarked) [B(41), 6-Cyclopentyl-3-(5,7-dimethyl-[1,2,4]triazolo[1,5-a]pyrimidin-2-ylmethyl)-4-hydroxy-6-[2-(4-propoxy-phenyl)-ethyl]-5,6-dihydro-pyran-2-one]	120
Cc1cc(C)n2nc(CC3=C(O)CC(CCc4ccc(OCc5c(C)noc5C)cc4)(C4CCCC4)OC3=O)nc2n1 (centres unmarked) [B(42), 6-Cyclopentyl-6-{2-[4-(3,5-dimethyl-isoxazol-4-ylmethoxy)-phenyl]-ethyl}-3-(5,7-dimethyl-[1,2,4]triazolo[1,5-a]pyrimidin-2-ylmethyl)-4-hydroxy-5,6-dihydro-pyran-2-one]	210
COc1ccc(CCC2(C3CCCC3)CC(O)=C(Cc3nc4cc(Cl)ccc4n3C)C(=O)O2)cc1Cl (centres unmarked) [B(43), 6-[2-(3-chloro-4-methoxyphenyl)ethyl]-3-[(5-chloro-1-methyl-1H-benzimidazol-2-yl)methyl]-6-cyclopentyl-4-hydroxy-5,6-dihydro-2H-pyran-2-one]	360
Cc1cc(C)n2nc(CC3=C(O)CC(CCc4ccc(C(C)C)c(Cl)c4)(C4CCCC4)OC3=O)nc2n1 (centres unmarked) [B(44), 6-[2-(3-chloro-4-isopropylphenyl)ethyl]-6-cyclopentyl-3-[(5,7-dimethyl[1,2,4]triazolo[1,5-a]pyrimidin-2-yl)methyl]-4-hydroxy-5,6-dihydro-2H-pyran-2-one]	53
Cc1cc(C)n2nc(CC3=C(O)CC(CCc4ccc(C(C)C)c(F)c4)(C4CCCC4)OC3=O)nc2n1 (centres unmarked) [B(45), 6-cyclopentyl-3-[(5,7-dimethyl[1,2,4]triazolo[1,5-a]pyrimidin-2-yl)methyl]-6-[2-(3-fluoro-4-isopropylphenyl)ethyl]-4-hydroxy-5,6-dihydro-2H-pyran-2-one]	53
CCc1cc(CCC2(C3CCCC3)CC(=O)C(Cc3nc4nc(C)cc(C)n4n3)C(=O)O2)ccc1F (centres unmarked) [B(46), 6-cyclopentyl-3-[(5,7-dimethyl[1,2,4]triazolo[1,5-a]pyrimidin-2-yl)methyl]-6-[2-(3-ethyl-4-fluorophenyl)ethyl]dihydro-2H-pyran-2,4(3H)-dione]	20
COc1ccc(CCC2(C3CCCC3)CC(=O)C(Cc3nccs3)C(=O)O2)cc1Cl (centres unmarked) [B(47), 6-[2-(3-chloro-4-methoxyphenyl)ethyl]-6-cyclopentyl-3-(1,3-thiazol-2-ylmethyl)dihydro-2H-pyran-2,4(3H)-dione]	800
COc1ccc(CCC2(C3CCCC3)CC(=O)C(Cc3nccn3C)C(=O)O2)cc1Cl (centres unmarked) [B(48), 6-[2-(3-chloro-4-methoxyphenyl)ethyl]-6-cyclopentyl-3-[(1-methyl-1H-imidazol-2-yl)methyl]dihydro-2H-pyran-2,4(3H)-dione]	700
Cc1cc(C)n2nc(CC3C(=O)CC(CCc4cccc(C(C)C)c4)(C4CCCC4)OC3=O)nc2n1 (centres unmarked) [B(49), 6-cyclopentyl-3-[(5,7-dimethyl[1,2,4]triazolo[1,5-a]pyrimidin-2-yl)methyl]-6-[2-(3-isopropylphenyl)ethyl]dihydro-2H-pyran-2,4(3H)-dione]	10
Cc1cc(C)n2nc(CC3C(=O)CC(CCc4ccc(C(C)C)cc4)(C4CCCC4)OC3=O)nc2n1 (centres unmarked) [B(50), 6-cyclopentyl-3-[(5,7-dimethyl[1,2,4]triazolo[1,5-a]pyrimidin-2-yl)methyl]-6-[2-(4-isopropylphenyl)ethyl]dihydro-2H-pyran-2,4(3H)-dione]	90
Cc1cc(C)n2nc(CC3C(=O)CC(CCc4cccc(Cl)c4)(C4CCCC4)OC3=O)nc2n1 (centres unmarked) [B(51), 6-[2-(3-chlorophenyl)ethyl]-6-cyclopentyl-3-[(5,7-dimethyl[1,2,4]triazolo[1,5-a]pyrimidin-2-yl)methyl]dihydro-2H-pyran-2,4(3H)-dione]	72
COc1cc(OC)c(CCC2(C3CCCC3)CC(O)=C(Cc3nc4nc(C)cc(C)n4n3)C(=O)O2)cc1Cl (centres unmarked) [B(52), 6-[2-(5-chloro-2,4-dimethoxyphenyl)ethyl]-6-cyclopentyl-3-[(5,7-dimethyl[1,2,4]triazolo[1,5-a]pyrimidin-2-yl)methyl]dihydro-2H-pyran-2,4(3H)-dione]	170
COc1ccc(CCC2(C3CCCC3)CC(O)=C(Cc3nc(C)nn3C)C(=O)O2)cc1Cl (centres unmarked) [B(53), 6-[2-(Chloro-4-methoxyphenyl)ethyl]-6-cyclopentyl-3-[(1,3-dimethyl-1H-1,2,4-triazol-5-yl)methyl]-4-hydroxy-5,6-dihydro-2H-pyran-2-one]	350
COc1ccc(CCC2(C3CCCC3)CC(O)=C(Cc3nc(C)cc(=O)[nH]3)C(=O)O2)cc1Cl (centres unmarked) [B(54), 2-({6-[-(3-chloro-4-methoxyphenyl)ethyl]-6-cyclopentyl-4-hydroxy-2-oxo-5,6-dihydro-2H-pyran-3-yl}methyl)-6-methylpyrimidin-4(3H)-one]	300
